Source: US20050250822A1, “Substituted benzanilide compound and noxious organism controlling agent” (priority 2002, published 2005)
Where two headings read alike, the source gives them in different places.

Tests used:
[1] = test system: Common cutworms (Spodoptera litura) with second instar larvae; experiment: Insecticidal test against common cutworm (leaf dip); assay type: in vivo; conditions: foliar, 144 h, read-out: insecticidal rate (rate of dead insects)
Experimental: Insecticidal Test Against Common Cutworm
(§1) A 10% emulsifiable concentrate (depending on the compounds, 25% wettable powder was applied for the test) of the compound of the present invention was diluted with water containing a spreading agent to prepare a chemical solution with a concentration of 100 ppm. To the chemical solution was dipped leaves of Chinese olive for about 10 seconds, and after air-drying, they were placed in a laboratory dish, then, 10 Common cutworms (Spodoptera litura) with second instar larvae per the dish were released therein, and the dish was covered with a lid having holes and contained at a thermostat chamber at 25° C. A number of dead insect(s) after 6 days was counted and a rate of dead insects was calculated by the following calculation formula. Incidentally, the test was carried out with two districts. Rate of dead insects (%)=(Number of dead insects/Number of released insects)×100

[2] = test system: diamondback moths (Plutella xylostella) with second instar larvae; experiment: Insecticidal test against diamondback moth (leaf dip); assay type: in vivo; conditions: foliar, 144 h, read-out: insecticidal rate (rate of dead insects)
Experimental: Insecticidal Test Against Diamondback Moth
as §1, with “diamondback moths (Plutella xylostella)” for “Common cutworms (Spodoptera litura)”, “in” for “by”, “same manner as in Test Example 1.” for “following calculation formula.”, “districts.” for “districts. Rate of dead insects (%)=(Number of dead insects/Number of released insects)×100”

[3] = chemical solution 100 ppm, leaf dip, 25° C., dead insects counted after 6 days

SMILES: CC1=NOC(c2ccc(NC(=O)c3cccc(I)c3C(=O)NC(C)C)c(C)c2)(C(F)(F)F)C1 (centres unmarked) [1-006, 3-Iodo-N^2-isopropyl-N^1-[2-methyl-4-(3-methyl-5-trifluoromethyl-4,5-dihydroisoxazol-5-yl)phenyl]phthalic diamide]
- pest or weed control at 100 ppm [1, 3]: ≥ 80%
- pest or weed control at 100 ppm [2, 3]: ≥ 80%

SMILES: CSCC(C)NC(=O)c1c(I)cccc1C(=O)Nc1ccc(C2(c3ccc(Cl)cc3)CC2(F)F)cc1C (centres unmarked) [9-026, N^1-[4-(2,2-difluoro-1-(4-chlorophenyl)cyclopropyl)-2-methylphenyl]-3-iodo-N^2-(1-methyl-2-methylthioethyl)phthalic diamide]
- pest or weed control at 100 ppm [1, 3]: ≥ 80%
- pest or weed control at 100 ppm [2, 3]: ≥ 80%

SMILES: Cc1cc(C2(C(F)(F)C(F)(F)C(F)(F)F)CC(c3ccc(Cl)cc3)=NO2)ccc1NC(=O)c1cccc(I)c1C(=O)NC(C)C (centres unmarked) [2-059, N^1-[4-[3-(4-chlorophenyl)-5-heptafluoropropyl-4,5-dihydroisoxazol-5-yl]-2-methylphenyl]-3-iodo-N^2-isopropylphthalic diamide]
- pest or weed control at 100 ppm [1]: ≥ 80%
- pest or weed control at 100 ppm [2]: ≥ 80%

SMILES: Cc1cc(C2(C(F)(F)F)CC(c3ccc(Cl)cc3)=NN2C)ccc1NC(=O)c1cccc(I)c1C(=O)NC(C)C (centres unmarked) [6-04, N^1-[4-[3-(4-chlorophenyl)-1-methyl-5-trifluoromethyl-4,5-dihydropyrazol-5-yl]-2-methylphenyl]-3-iodo-N^2-isopropylphthalic diamide]
- pest or weed control at 100 ppm [1, 3]: ≥ 80%
- pest or weed control at 100 ppm [2, 3]: ≥ 80%
